Data on 44 compounds can be found in US7041687B2, “Indazole compounds useful as protein kinase inhibitors” (Vertex Pharmaceuticals Incorporated, priority 2002, dated 2006).

Each structure is given as a SMILES string. pKi: −log10 of the molar value.

Type in all cases: biochemical
In one assay the target is AKT-3 (Homo sapiens, UniProt Q9Y243). Kind of assay: AKT-3 inhibition assay (standard coupled enzyme assay). The settings on record: 170 μM ATP, 200 μM peptide, 45 nM AKT, 30° C.
The next assay deals with PKA (Homo sapiens, UniProt P17612). Kind of assay: PKA inhibition assay (standard coupled enzyme assay). Particulars: 50 μM ATP, 80 μM Kemptide, 18 nM PKA, 30° C. The protocol: Compounds were screened for their ability to inhibit PKA using a standard coupled enzyme assay (Fox et al., Protein Sci., (1998) 7, 2249). Assays were carried out in a mixture of 100 mM HEPES 7.5, 10 mM MgCl2, 25 mM NaCl, 1 mM DTT and 3% DMSO. Final substrate concentrations in the assay were 50 μM ATP (Sigma Chemicals) and 80 μM peptide (Kemptide, American Peptide, Sunnyvale, Calif.). Assays were carried out at 30° C. and 18 nM PKA. Final concentrations of the components of the coupled enzyme system were 2.5 mM phosphoenolpyruvate, 300 μM NADH, 30 μg/ml pyruvate kinase and 10 μg/ml lactate dehydrogenase.
An assay stock buffer solution was prepared containing all of the reagents listed above, with the exception of ATP, and the test compound of interest. 55 μl of the stock solution was placed in a 96 well plate followed by addition of 2 μl of DMSO stock containing serial dilutions of the test compound (typically starting from a final concentration of 5 μM). The plate was preincubated for 10 minutes at 30° C. and the reaction initiated by addition of 5 μl of ATP (final concentration 50 μM). Initial reaction rates were determined with a Molecular Devices SpectraMax Plus plate reader over a 15 minute time course. IC50 and Ki data were calculated from non-linear regression analysis using the Prism software package (GraphPad Prism version 3.0a for Macintosh, GraphPad Software, San Diego Calif., USA).

For a further assay, the target named is T1, PDK-1 (Homo sapiens, UniProt O15530).
T1 sequence (O15530 1-556): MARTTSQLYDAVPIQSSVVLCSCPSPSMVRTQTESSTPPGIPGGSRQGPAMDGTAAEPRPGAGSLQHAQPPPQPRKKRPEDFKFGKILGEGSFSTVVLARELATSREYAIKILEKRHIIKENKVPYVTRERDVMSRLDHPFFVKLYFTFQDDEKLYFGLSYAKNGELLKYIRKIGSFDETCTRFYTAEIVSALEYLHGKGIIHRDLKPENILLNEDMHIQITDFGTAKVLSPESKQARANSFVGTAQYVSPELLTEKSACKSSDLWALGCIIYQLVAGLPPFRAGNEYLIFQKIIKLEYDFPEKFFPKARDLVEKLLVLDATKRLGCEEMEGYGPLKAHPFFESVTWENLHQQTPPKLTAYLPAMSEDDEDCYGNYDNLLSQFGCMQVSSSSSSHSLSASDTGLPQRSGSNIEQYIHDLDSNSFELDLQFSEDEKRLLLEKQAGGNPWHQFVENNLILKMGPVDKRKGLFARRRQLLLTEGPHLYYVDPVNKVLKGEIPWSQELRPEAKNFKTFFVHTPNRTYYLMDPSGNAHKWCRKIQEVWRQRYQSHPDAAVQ
Kind of assay: PDK-1 inhibition assay (radioactive-phosphate incorporation). Particulars: 40 μM ATP, 65 μM PDKtide, 25 nM PDK-1, 30° C.

AKT-3, sequence (Q9Y243 whole entry): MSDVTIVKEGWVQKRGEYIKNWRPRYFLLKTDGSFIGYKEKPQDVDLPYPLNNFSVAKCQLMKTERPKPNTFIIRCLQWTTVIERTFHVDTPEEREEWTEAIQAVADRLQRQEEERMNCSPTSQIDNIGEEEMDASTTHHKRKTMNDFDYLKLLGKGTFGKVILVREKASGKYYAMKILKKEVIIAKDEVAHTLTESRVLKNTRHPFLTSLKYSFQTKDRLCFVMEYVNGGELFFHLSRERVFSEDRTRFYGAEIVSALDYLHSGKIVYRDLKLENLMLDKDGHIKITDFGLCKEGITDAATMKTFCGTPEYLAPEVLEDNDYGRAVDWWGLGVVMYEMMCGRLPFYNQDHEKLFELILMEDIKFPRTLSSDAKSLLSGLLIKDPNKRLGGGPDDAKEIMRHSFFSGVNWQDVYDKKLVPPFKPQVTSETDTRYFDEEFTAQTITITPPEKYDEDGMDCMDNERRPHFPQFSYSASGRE
Description for PDK-1: Compounds were screened for their ability to inhibit PDK-1 using a radioactive-phosphate incorporation assay (Pitt and Lee, J. Biomol. Screen., (1996) 1, 47). Assays were carried out in a mixture of 100 mM HEPES (pH 7.5), 10 mM MgCl2, 25 mM NaCl, 2 mM DTT. Final substrate concentrations in the assay were 40 μM ATP (Sigma Chemicals) and 65 μM peptide (PDKtide, Upstate, Lake Placid, N.Y.). Assays were carried out at 30° C. and 25 nM PDK-1 in the presence of ˜27.5 nCi/μL of [γ-^32P]ATP (Amersham Pharmacia Biotech, Amersham, UK). An assay stock buffer solution was prepared containing all of the reagents listed above, with the exception of ATP, and the test compound of interest. 15 μl of the stock solution was placed in a 96 well plate followed by addition of 1 μl of 0.5 mM DMSO stock containing the test compound (final compound concentration 25 μM, final DMSO concentration 5%). The plate was preincubated for about 10 minutes at 30° C. and the reaction initiated by addition of 4 μl ATP (final concentration 40 μM).
The reaction was stopped after 10 minutes by the addition of 100 μL 100 mM phosphoric acid, 0.01% Tween-20. A phosphocellulose 96 well plate (Millipore, Cat no. MAPHNOB50) was pretreated with 100 μL 100 mM phosphoric acid, 0.01% Tween-20 prior to the addition of the reaction mixture (100 μL). The spots were left to soak for at least 5 minutes, prior to wash steps (4×200 μL 100 mM phosphoric acid, 0.01% Tween-20). Alter drying, 20 μL Optiphase ‘SuperMix’ liquid scintillation cocktail (Perkin Elmer) was added to the well prior to scintillation counting (1450 Microbeta Liquid Scintillation Counter, Wallac).

As usually defined, the pKi is the negative decadic logarithm of the Ki, by convention in mol/L. Turning to `O=C(Cc1cccc(C(F)(F)F)c1)Nc1ccc2[nH]ncc2c1` [Compound I-2], the results for the pKi at AKT-3 and on PKA were 4.70 to 5.00 and over 6.00, respectively. As to `NCCNC(C(=O)Nc1ccc2[nH]ncc2c1)c1cccc(Cl)c1` (stereo not shown) [Compound I-59, 2-(2-Amino-ethylamino)-2-(3-chloro-phenyl)-N-(1H-indazol-5-yl)-acetamide], the pKi at AKT-3 and at PKA was over 6.00 throughout. Turning to `Cc1n[nH]c2ccc(NC(=O)[C@H](CCN)c3ccccc3)cc12` [Compound I-1034], the pKi on PDK-1 and on PKA was over 6.00 each time. For the compound `O=C(Nc1ccc2[nH]nc(Cl)c2c1)[C@H](O)c1cccc(Cl)c1` [Compound I-78], the pKi was 5.00 to 6.00 at AKT-3 and over 6.00 at PKA. For `Cc1n[nH]c2ccc(NC(=O)[C@@H](CCN)c3ccccc3)cc12` [Compound I-1033], the negative-log Ki (pKi) on PDK-1 is under 5.52; at PKA it was over 6.00. The corresponding values for `NCC[C@H](C(=O)Nc1ccc2[nH]nc(-c3ccc(C(=O)O)cc3)c2c1)c1ccccc1` [Compound I-263] are over 6.00 and over 6.00. `CNc1cccc(C(=O)Nc2n[nH]c3ccc(NC(=O)C(CCN)c4ccc(Cl)c(Cl)c4)cc23)c1` (stereo not shown) [Compound I-209]: the pKi at AKT-3 and at PKA was over 6.00 in each case.

Consider `NCCC(C(=O)Nc1ccc2[nH]ncc2c1)c1ccc(F)c(C(F)(F)F)c1` (stereo not shown) [Compound I-103], for which the pKi at AKT-3 and on PKA was over 6.00 throughout. Regarding `CNCCCNC(C(=O)Nc1ccc2[nH]ncc2c1)c1cccc(Cl)c1` (stereo not shown) [Compound I-67], the pKi at AKT-3 and on PKA was over 6.00 throughout. As to `NCCC(C(=O)Nc1cc(Br)c2[nH]ncc2c1)c1ccc(Cl)c(Cl)c1` (stereo not shown) [Compound I-144], the pKi at AKT-3 and on PKA was over 6.00 throughout.

`Cc1n[nH]c2ccc(NC(=O)[C@H](O)c3ccc(F)c(Cl)c3)cc12` [Compound I-77]: the pKi on AKT-3 was 5.00 to 6.00; at PKA, over 6.00. With `NC[C@H](C(=O)Nc1ccc2[nH]ncc2c1)c1ccc(Cl)c(Cl)c1` [Compound I-243], the pKi on AKT-3 and at PKA was over 6.00 each time.

Take `NCCNC(C(=O)Nc1ccc2[nH]ncc2c1)c1ccc(Cl)c(Cl)c1` (stereo not shown) [Compound I-69]: on PKA, the negative logarithm of the Ki (pKi) is over 6.00. Take `O=C(Nc1ccc2[nH]ncc2c1)[C@H](O)c1cccc(Cl)c1` [Compound I-40]: the negative-log Ki (pKi) was 5.00 to 6.00 on AKT-3 and over 6.00 at PKA. For `NCCC(C(=O)Nc1ccc2[nH]nc(-c3cccc(F)c3)c2c1)c1ccc(Cl)c(Cl)c1` (stereo not shown) [Compound I-252], in that order: over 6.00 and over 6.00. The corresponding values for `NCCC(C(=O)Nc1ccc2[nH]ncc2c1)c1cccc(C(F)(F)F)c1` (stereo not shown) [Compound I-104] are over 6.00 and over 6.00.

Take `NC(C(=O)Nc1ccc2[nH]ncc2c1)c1c[nH]c2ccccc12` (stereo not shown) [Compound I-56]: the pKi was 5.00 to 6.00 on AKT-3 and over 6.00 on PKA.

Consider `NCCC(C(=O)Nc1ccc2[nH]ncc2c1)c1cc(C(F)(F)F)cc(Cl)n1` (stereo not shown) [Compound I-149], for which the pKi at AKT-3 and at PKA was over 6.00 each time. For the compound `O=C(CCCc1ccccc1)Nc1ccc2[nH]ncc2c1` [Compound I-92], the pKi on PKA is 5.30 to 6.00. Turning to `NCCC(C(=O)Nc1ccc2[nH]nc(-c3ccc(C(=O)O)cc3)c2c1)c1ccccc1` (stereo not shown) [Compound I-237], the pKi on PDK-1 and at PKA was over 6.00 each time. For the compound `N[C@@H](C(=O)Nc1ccc2[nH]ncc2c1)c1ccccc1` [Compound I-48], the pKi was 5.00 to 6.00 at AKT-3 and over 6.00 at PKA.

In the case of `O=C(Nc1ccc2[nH]ncc2c1)C(O)c1cc(F)cc(F)c1` (stereo not shown) [Compound I-43], the pKi on AKT-3 is 5.00 to 6.00; on PKA, over 6.00. The corresponding values for `Cc1n[nH]c2ccc(NC(=O)C(CCN)c3cccc(Cl)c3F)cc12` (stereo not shown) [Compound I-116] are over 6.00 and over 6.00.

`O=C(Cc1c[nH]c2ccccc12)Nc1ccc2[nH]ncc2c1` [Compound I-24] gave a pKi at PKA of 5.30 to 6.00.

Take `NC(C(=O)Nc1ccc2[nH]ncc2c1)c1ccc(F)c(Cl)c1` (stereo not shown) [Compound I-55]: the results for the pKi at AKT-3 and at PKA were 5.00 to 6.00 and over 6.00, respectively. The corresponding values for `NC(C(=O)Nc1ccc2[nH]ncc2c1)c1cccc(Br)c1` (stereo not shown) [Compound I-52] are 4.70 to 5.00 and over 6.00.

For the compound `NCCC(C(=O)Nc1cc(Cl)c2[nH]ncc2c1)c1ccc(Cl)c(Cl)c1` (stereo not shown) [Compound I-143], the pKi on AKT-3 and at PKA was over 6.00 in each case. With `Cc1n[nH]c2ccc(NC(=O)C(CN)c3ccc(Cl)s3)cc12` (stereo not shown) [Compound I-245], the pKi at AKT-3 and at PKA was over 6.00 throughout.

As to `Cc1n[nH]c2ccc(NC(=O)C(CCN)c3ccccc3F)cc12` (stereo not shown) [Compound I-1026], the pKi on PDK-1 and on PKA was over 6.00 in each case. For `NCCC(C(=O)Nc1ccc2[nH]nc(-c3cccc(CN)c3)c2c1)c1ccccc1` (stereo not shown) [Compound I-260], the pKi at PDK-1 and on PKA was over 6.00 in each case. `O=C(Cc1cccc(Cl)c1F)Nc1ccc2[nH]ncc2c1` [Compound I-93] had a pKi on PKA of over 6.00.

In the case of `Cc1n[nH]c2ccc(NC(=O)[C@H](O)c3cccc(Cl)c3)cc12` [Compound I-76], the pKi on AKT-3 was 5.00 to 6.00; at PKA, over 6.00. In the case of `NCCC(C(=O)Nc1ccc2[nH]nc(-c3cccc(C(F)(F)F)c3)c2c1)c1ccccc1` (stereo not shown) [Compound I-230], the pKi at PDK-1 and on PKA was over 6.00 in each case. In the case of `NCCC(C(=O)Nc1ccc2[nH]nc(NC(=O)c3cccc([N+](=O)[O-])c3)c2c1)c1ccc(Cl)c(Cl)c1` (stereo not shown) [Compound I-208], the pKi at AKT-3 and at PKA was over 6.00 throughout.

As for `Cc1ccc(-c2n[nH]c3ccc(NC(=O)C(CCN)c4ccccc4)cc23)cc1` (stereo not shown) [Compound I-249], the pKi on PDK-1 and at PKA was over 6.00 in each case. As to `NCCNC(C(=O)Nc1ccc2[nH]ncc2c1)c1ccc2ccccc2c1` (stereo not shown) [Compound I-73], the pKi at AKT-3 and on PKA was over 6.00 each time. Compound `O=C(Nc1ccc2[nH]ncc2c1)C(CO)c1ccc(F)c(Cl)c1` (stereo not shown) [Compound I-85] had a pKi at PKA of over 6.00. Turning to `O=C(Cc1cccc(Cl)c1)Nc1ccc2[nH]ncc2c1` [Compound I-6, 2-(3-Chloro-phenyl)-N-(1H-indazol-5-yl)-acetamide], the pKi at PKA is 5.30 to 6.00. Consider `O=C(Nc1ccc2[nH]ncc2c1)C(O)c1ccc(Cl)cc1` (stereo not shown) [Compound I-35], for which the pKi on AKT-3 was 5.00 to 6.00; on PKA it was over 6.00.

Turning to `NCCC(C(=O)Nc1ccc2[nH]nc(-c3cccc(F)c3)c2c1)c1ccccc1` (stereo not shown) [Compound I-240], the pKi at PDK-1 and on PKA was over 6.00 throughout. As for `NCC(C(=O)Nc1ccc2[nH]ncc2c1)c1cccc(Cl)c1` (stereo not shown) [Compound I-97], the pKi at AKT-3 and on PKA was over 6.00 throughout. `C#Cc1cccc(C(=O)Nc2n[nH]c3ccc(NC(=O)C(CCN)c4ccc(Cl)c(Cl)c4)cc23)c1` (stereo not shown) [Compound I-205]: the pKi at AKT-3 and at PKA was over 6.00 each time.

`CCNc1cccc(C(=O)Nc2n[nH]c3ccc(NC(=O)C(CCN)c4ccc(Cl)c(Cl)c4)cc23)c1` (stereo not shown) [Compound I-210]: the pKi on AKT-3 and at PKA was over 6.00 each time. With `NC(C(=O)Nc1ccc2[nH]ncc2c1)c1cccc(Cl)c1` (stereo not shown) [Compound I-51], the pKi was 5.00 to 6.00 at AKT-3 and over 6.00 on PKA.
